# Data: US20260167623A1 (NIKANG THERAPEUTICS, INC., priority 2022, published 2026)
# pIC50: −log10 of the molar value.
# Biological target: T1, CDK2 (Homo sapiens, UniProt P24941)
# T1 construct: High-Throughput Measurement of Cellular Endogenous CDK2; endogenous in cells; host or cells: OVCAR3
# Test: Inhibition of CDK2: phospho-Rb (S807/811) HTRF measurement in OVCAR3 cells, 24 h
# Assay type: cell-based
# Conditions: 24 h compound treatment, read-out: pRB_OVCAR3_24h
# Protocol: Inhibition of CDK2: Phospho-R^b Measurement in Cells
# Phosphorylation of RB protein at S807/811 were measured using HTRF phospho-RB cellular kits (Cat #64RBS807PEG) from Cisbio.
# On Day 1, OVCAR3 (CDK2 dependent cell line) cells were seeded into 96-well tissue-culture treated plates at 20,000 cells/well in 200 μL and incubated overnight at 37° C. in CO2 atmosphere. On Day 2, the cells were treated with test compounds at concentrations from 0.3 to 10,000 nM using HP D300 digital dispenser. Twenty-four hours after compound treatment, cell culture media is removed by flicking the plate and tapping the plate against clean paper towel. 30 μL 1× lysis buffer was supplemented from the kit was added to each well and the plate was incubated at room temperature on shaker for 30 min. After homogenization by pipetting up and down, 8 μL cell lysate from 96-well cell culture plate was transferred to 384-well small volume white detection plate. 2 μL premixed detection solution was added and the plate was covered with sealer. To prepare the detection solution, d2 conjugated-phospho-RB antibody and Eu-cryptate conjugated phosphor-RB antibody were diluted into detection buffer following manufacturer's instruction. Detection plates were incubated for 4 h at room temperature and read on ClarioStar (BMG Labtech) in TR-FRET mode (665 nM and 620 nM). The TR-FRET ratio (665 nM/620 nM) was plotted against the compound concentration and normalized to DMSO controls. Half maximal inhibition concentration (IC50) values were calculated with a four-parameter logistic fit using GraphPad Prism (version 8; La Jolla, CA).
row,Compound,pIC50
1,"Cn1nc(N2CCC(=O)NC2=O)c2ccc(C3CCN(Cc4cccc(S(=O)(=O)N5CCC(Nc6ncc(F)cn6)CC5)c4)CC3)cc21 [Example 26, 1-(6-(1-(3-((4-((5-fluoropyrimidin-2-yl)amino)piperidin-1-yl)sulfonyl)benzyl)-piperidin-4-yl)-1-methyl-1H-indazol-3-yl)dihydropyrimidine-2,4(1H,3H)-dione]",< 5.60
2,"Cn1nc(N2CCC(=O)NC2=O)c2ccc(C3CCN(C(c4cccc(S(=O)(=O)N5CCC(Nc6ncc(Cl)cn6)CC5)c4)C(F)F)CC3)cc21 (stereo not shown) [Example 30, 1-(6-(1-(1-(3-((4-((5-chloropyrimidin-2-yl)amino)piperidin-1-yl)sulfonyl)phenyl)-2,2-difluoroethyl)piperidin-4-yl)-1-methyl-1H-indazol-3-yl)dihydropyrimidine-2,4(1H,3H)-dione]",5.60 to 6.30
3,"Cn1nc(N2CCC(=O)NC2=O)c2ccc(C3CCN(CCC4CCCN(S(=O)(=O)N5CCC(Nc6ncc(C(F)(F)F)cn6)CC5)C4)CC3)cc21 (stereo not shown) [Example 32, 1-(1-methyl-6-(1-(2-(1-((4-((5-(trifluoromethyl)pyrimidin-2-yl)amino)-piperidin-1-yl)sulfonyl)piperidin-3-yl)ethyl)piperidin-4-yl)-1H-indazol-3-yl)dihydropyrimidine-2,4(1H,3H)-dione]",5.60 to 6.30
4,"O=C1CCC(N2Cc3cc(N4CCN(Cc5cccc(S(=O)(=O)N6CCC(Nc7ncc(Cl)cn7)CC6)c5)CC4)c(F)cc3C2=O)C(=O)N1 (stereo not shown) [Example 34, 3-(5-(4-(3-((4-((5-chloropyrimidin-2-yl)amino)piperidin-1-yl)sulfonyl)benzyl)-piperazin-1-yl)-6-fluoro-1-oxoisoindolin-2-yl)piperidine-2,6-dione]",6.30 to 7.00
5,Cn1nc(N2CCC(=O)NC2=O)c2ccc(C3CCN(CCCC4CCN(S(=O)(=O)N5CCC(Nc6ncc(C(F)(F)F)cn6)CC5)CC4)CC3)cc21 [Example 36],5.60 to 6.30
6,"O=C1CCC(N2Cc3cc(N4CCC(Oc5cccc(S(=O)(=O)N6CCC(Nc7ncc(C(F)(F)F)cn7)CC6)c5)CC4)ccc3C2=O)C(=O)N1 (stereo not shown) [Example 41, 3-(1-ox0-5-(4-(3-((4-((5-(trifluoromethyl)-pyrimidin-2-yl)amino)piperidin-1-yl)sulfonyl)phenoxy)piperidin-1-yl)isoindolin-2-yl)piperidine-2,6-dione]",6.30 to 7.00
7,"O=C1CCC(N2Cc3cc(N4CCC(N5CC(Oc6cccc(S(=O)(=O)N7CCC(Nc8ncc(C(F)(F)F)cn8)CC7)c6)C5)CC4)ccc3C2=O)C(=O)N1 (stereo not shown) [Example 45, 3-(1-ox0-5-(4-(3-(3-((4-((5-(trifluoro-methyl)pyrimidin-2-yl)amino)piperidin-1-yl)sulfonyl)phenoxy)azetidin-1-yl)piperidin-1-yl)isoindolin-2-yl)piperidine-2,6-dione]",6.30 to 7.00
8,Cn1nc(N2CCC(=O)NC2=O)c2ccc(N3CC4(CN(Cc5cccc(S(=O)(=O)N6CCC(Nc7ncc(Cl)cn7)CC6)c5)C4)C3)cc21 [Example 46],5.60 to 6.30
9,"O=C1CCC(N2Cc3cc(C4CN(Cc5cccc(S(=O)(=O)N6CCC(Nc7ncc(C(F)(F)F)cn7)CC6)c5)C4)ccc3C2=O)C(=O)N1 (stereo not shown) [Example 48, 3-(1-oxo-5-(1-(3-((4-((5-(trifluoromethyl)-pyrimidin-2-yl)amino)piperidin-1-yl)sulfonyl)benzyl)azetidin-3-yl)isoindolin-2-yl)piperidine-2,6-dione]",6.30 to 7.00
10,"Cn1nc(N2CCC(=O)NC2=O)c2ccc(C3CN(Cc4cccc(S(=O)(=O)N5CCC(Nc6ncc(C(F)(F)F)cn6)CC5)c4)C3)cc21 [Example 49, 1-(1-methyl-6-(1-(3-((4-((5-(trifluoro-methyl)pyrimidin-2-yl)amino)piperidin-1-yl)sulfonyl)benzyl)azetidin-3-yl)-1H-indazol-3-yl)dihydropyrimidine-2,4(1H,3H)-dione]",5.60 to 6.30
11,"O=C1CCC(N2Cc3cc(C4CN(Cc5cccc(S(=O)(=O)N6CCC(Nc7ncc(Cl)cn7)CC6)c5)C4)ccc3C2=O)C(=O)N1 (stereo not shown) [Example 50, 3-(5-(1-(3-((4-((5-chloropyrimidin-2-yl)amino)piperidin-1-yl)sulfonyl)benzyl)-azetidin-3-yl)-1-oxoisoindolin-2-yl)piperidine-2,6-dione]",5.60 to 6.30
12,"Cn1nc(N2CCC(=O)NC2=O)c2ccc(N3CCN(CC4CCN(c5cccc(S(=O)(=O)N6CCC(Nc7ncc(C(F)(F)F)cn7)CC6)c5)CC4)CC3)cc21 [Example 51, 1-(1-methyl-6-(4-((1-(3-((4-((5-(trifluoro-methyl)pyrimidin-2-yl)amino)piperidin-1-yl)sulfonyl)phenyl)piperidin-4-yl)methyl)piperazin-1-yl)-1H-indazol-3-yl)dihydropyrimidine-2,4(1H,3H)-dione]",5.60 to 6.30
13,"Cn1nc(N2CCC(=O)NC2=O)c2ccc(N3CCN(CC4CCN(c5cccc(S(=O)(=O)N6CCC(Nc7ncc(Cl)cn7)CC6)c5)CC4)CC3)cc21 [Example 52, 1-(6-(4-((1-(3-((4-((5-chloropyrimidin-2-yl)amino)piperidin-1-yl)sulfonyl)phenyl)-piperidin-4-yl)methyl)piperazin-1-yl)-1-methyl-1H-indazol-3-yl)dihydropyrimidine-2,4(1H,3H)-dione]",5.60 to 6.30
14,"Cn1nc(N2CCC(=O)NC2=O)c2ccc(C3CN(Cc4cccc(S(=O)(=O)N5CCC(Nc6ncc(Cl)cn6)CC5)c4)C3)cc21 [Example 56, 1-(6-(1-(3-((4-((5-chloropyrimidin-2-yl)amino)piperidin-1-yl)sulfonyl)benzyl)-azetidin-3-yl)-1-methyl-1H-indazol-3-yl)dihydropyrimidine-2,4(1H,3H)-dione]",5.60 to 6.30
15,"COc1cnc(NC2CCN(S(=O)(=O)c3cccc(CN4CCC(c5ccc6c(N7CCC(=O)NC7=O)nn(C)c6c5)CC4)c3)CC2)nc1 [Example 57, 1-(6-(1-(3-((4-((5-methoxypyrimidin-2-yl)amino)piperidin-1-yl)sulfonyl)benzyl)-piperidin-4-yl)-1-methyl-1H-indazol-3-yl)dihydropyrimidine-2,4(1H,3H)-dione]",5.60 to 6.30
16,"Cn1nc(N2CCC(=O)NC2=O)c2ccc(C3CCN(Cc4cccc(S(=O)(=O)[C@H]5CC[C@H](Nc6ncc(Cl)cn6)CC5)c4)CC3)cc21 [Example 59, 1-(6-(1-(3-(((1r,4r)-4-((5-chloropyrimidin-2-yl)amino)cyclohexyl)sulfonyl)benzyl)piperidin-4-yl)-1-methyl-1H-indazol-3-yl)dihydropyrimidine-2,4(1H,3H)-dione]",< 5.60
17,"Cc1cnc(NC2CCN(S(=O)(=O)c3cccc(CN4CCC(c5ccc6c(N7CCC(=O)NC7=O)nn(C)c6c5)CC4)c3)CC2)nc1 [Example 60, 1-(1-methyl-6-(1-(3-((4-((5-methyl-pyrimidin-2-yl)amino)piperidin-1-yl)sulfonyl)benzyl)piperidin-4-yl)-1H-indazol-3-yl)dihydropyrimidine-2,4(1H,3H)-dione]",5.60 to 6.30
18,"O=C1CCN(c2nn(CC(F)(F)F)c3cc(N4CCN(Cc5cccc(S(=O)(=O)N6CCC(Nc7ncc(Cl)cn7)CC6)c5)CC4)ccc23)C(=O)N1 [Example 62, 1-(6-(4-(3-((4-((5-chloropyrimidin-2-yl)amino)piperidin-1-yl)sulfonyl)benzyl)-piperazin-1-yl)-1-(2,2,2-trifluoroethyl)-1H-indazol-3-yl)dihydropyrimidine-2,4(1H,3H)-dione]",6.30 to 7.00
19,"Cn1nc(N2CCC(=O)NC2=O)c2ccc(C3CCN(Cc4ccc(S(=O)(=O)N5CCC(Nc6ncc(Cl)cn6)CC5)cc4)CC3)cc21 [Example 63, 1-(6-(1-(4-((4-((5-chloropyrimidin-2-yl)amino)piperidin-1-yl)sulfonyl)benzyl)-piperidin-4-yl)-1-methyl-1H-indazol-3-yl)dihydropyrimidine-2,4(1H,3H)-dione]",7.00 to 9.00
20,"Cn1nc(N2CCC(=O)NC2=O)c2ccc(N3CCN(Cc4cccc(S(=O)(=O)[C@H]5CC[C@H](Nc6ncc(Cl)cn6)CC5)c4)CC3)cc21 [Example 67, 1-(6-(4-(3-(((1r,4r)-4-((5-chloropyrimidin-2-yl)amino)cyclohexyl)sulfonyl)benzyl)piperazin-1-yl)-1-methyl-1H-indazol-3-yl)dihydropyrimidine-2,4(1H,3H)-dione]",< 5.60
21,"CN(C)c1cnc(NC2CCN(S(=O)(=O)c3cccc(CN4CCC(c5ccc6c(N7CCC(=O)NC7=O)nn(C)c6c5)CC4)c3)CC2)nc1 [Example 70, 1-(6-(1-(3-((4-((5-(dimethylamino)-pyrimidin-2-yl)amino)piperidin-1-yl)-sulfonyl)benzyl)piperidin-4-yl)-1-methyl-1H-indazol-3-yl)dihydropyrimidine-2,4(1H,3H)-dione]",< 5.60
22,"O=C1CCC(N2C(=O)c3cc(F)c(N4CCN(Cc5cccc(S(=O)(=O)N6CCC(Nc7ncc(C(F)(F)F)cn7)CC6)c5)CC4)cc3C2=O)C(=O)N1 (stereo not shown) [Example 72, 2-(2,6-dioxopiperidin-3-yl)-5-fluoro-6-(4-(3-((4-((5-(trifluoromethyl)pyrimidin-2-yl)amino)piperidin-1-yl)sulfonyl)benzyl)-piperazin-1-yl)isoindoline-1,3-dione]",5.60 to 6.30
